According to patent US20050064382A1, “Method of prevention of lysosomal leakage in eukaryotic cells by using 6-methyluracil based water-soluble compounds and method of producing thereof” (priority 2002, published 2005):

Legend:
Drosophila [1] = experiment: X-ray caused loss of X-chromosomes in late oocyte of Drosophila; format: in vivo; conditions: 1000 Roentgens
Drosophila [2] = experiment: Sterol-deficit diet and both drugs: frequency of X-chromosomes loss in late oocytes of Drosophila; format: in vivo; conditions: yeast of wild type
From the text: The classic genetic model was used, based on the well-known method: the frequency of mutations in Drosophila (fruit flies) caused by X-rays. It is known that the frequency of these mutations can be increased by adding to the food of females certain membrane destabilizers (we used Polyene Antibiotics—Amphotericin B), or by the use of a special diet. Like all insects, Drosophila obtain all of their sterols from food (yeast for Drosophila). A special diet rich with Nistatin (Polyene antibiotic) resistant yeast was used.
The frequency of the loss of x-chromosomes (males excluded) was measured after crossing with the […]. Females were given a dose of 1000 Roentgens 5 days before being given the food additive or “special diet”.
Influence of sterol-deficit diet and both drugs on the frequency of X-chromosomes loss in late oocytes of Drosophila. Groups 1-4 received yeast of wild type, groups 5,6 (diet) received nistatin resistant yeasts meaning groups 5,6 had abnormal sterols in membranes: […]

Water solubility = format: physicochemical

| Structure (SMILES) | Frequency of the loss of X-chromosomes, % (Drosophila [1]; 1.0 mkg/female) | Frequency of the loss of X-chromosomes, % (Drosophila [1]; 5.0 mkg/female) | Frequency of the loss of X-chromosomes, % (Drosophila [1]; 10.0 mkg/female) | Frequency of the loss of X-chromosomes, % (Drosophila [1]; 15.0 mkg/female) | Frequency of the loss of X-chromosomes, % (Drosophila [1]; 20.0 mkg/female) | Frequency of X-Chromosomes loss, % (Drosophila [2]) | solubility (Water solubility) |
| --- | --- | --- | --- | --- | --- | --- | --- |
| C[C@@H]1[C@H](O)[C@@H](C)/C=C/C=C/C=C/C=C/C=C/C=C/C=C/[C@H](O[C@@H]2O[C@H](C)[C@@H](O)[C@H](N)[C@@H]2O)C[C@@H]2O[C@](O)(C[C@@H](O)C[C@@H](O)[C@H](O)CC[C@@H](O)C[C@@H](O)CC(=O)O[C@H]1C)C[C@H](O)[C@H]2C(=O)O [Amphotericin B, reference compound] | 1.4 ± 0.19% | 2.1 ± 0.21% | 3.6 ± 0.35% | 4.1 ± 0.41% | 4.2 ± 0.61% | 4.3 ± 0.29% |  |
| O=C1CCC(N2C(=O)c3ccccc3C2=O)C(=O)N1 (stereo not shown) [thalidomides, thalidomide] |  |  |  |  |  |  | < 3000 µg/mL |
